Test results reported in US7902341B2, “Methods and compositions for modulating somatolactogenic functions” (Trustees of the University of Pennsylvania, priority 1999, dated 2011).

Assays:
PRL = molecular target: T1, PRL (Homo sapiens, UniProt P01236); test: Detection of PRL-CypB complexes by co-immunoprecipitation; type: binding; details: for interaction with PRL (co-immunoprecipitation): purified epitope-tagged recombinant proteins admixed, reducing agent or divalent cation
T1 construct: Full length PRL cDNA was generated by PCR; made in house; host or cells: Drosophila S2 cells
T1 sequence (P01236 29-227): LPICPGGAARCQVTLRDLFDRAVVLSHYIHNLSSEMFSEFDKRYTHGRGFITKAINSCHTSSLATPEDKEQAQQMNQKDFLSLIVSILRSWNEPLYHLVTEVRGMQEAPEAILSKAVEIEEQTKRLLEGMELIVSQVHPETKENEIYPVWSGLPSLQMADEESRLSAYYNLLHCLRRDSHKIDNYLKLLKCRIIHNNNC
Description: Complexes were immunoprecipitated by the addition of 1 μg of polyclonal anti-histidine antibody (#sc-803, Santa Cruz Biotech) for one hour followed by roatation for one hour with 50 μl Protein-A beads. Precipiated complexes were separated by 15% SDS-PAGE and transferred to PVDF. Immunoblots were blocked for one hour at room temperature with 5% milk in PBS containing 1% TWEEN-20 (PBST) and immunoblotted with a monoclonal anti-myc antibody (1:1000, mAb 9E10) for one hour. Immunoblots were analyzed by incubation with an anti-mouse secondary antibody conjugated to horseradish peroxidase (1:2000, Boehringer Mannheim) for one hour followed by incubation with ECL Plus (Amersham Pharmacia Biotech) amnd exposure to Biomax film (Kodak).

Nb2 cells = test: Nb2 cell proliferation (3H-thymidine) to assess CypB modulation of somatolactogenic action; type: cell-based, rat; details: for enhancement of PRL-driven growth compared to cultures that received only PRL: Nb2 cells, added to PRL-containing medium, most prominent at 5-10 mM CypB and 50 pM PRL
Description: (§1) The effect of exogenous CypB on PRL-driven proliferation was examined with the rat Nb2 T-cell and the human T47D breast cancer line. […] This dose-dependent biphasic effect was most prominent at physiologic concentrations (5-10 mM) of CypB and PRL (50 pM) found in human serum. […] To determine the effect of CypB on cellular growth driven by the larger family of cytokines, to which PRL belongs, proliferation driven by interleukin-2 (IL-2), IL-3 and GH was examined.
Nb2-cells (5×10^4; PRL-dependent, rat T-lymphoma) were plated in each well of 96 well plates in a defined DMEM-serum free medium (0.1 mM 2-mercaptoethanol, 1% penicillin/streptomycin, and 1% ITS+(Calbiochem)). Cells were rested for 24 hours at 37° C. in this defined medium in the absence of PRL before the addition of 5-500 pM PRL (either as human pituitary isolated PRL, National Hormone and Pituitary Program, NIDDK; recombinant human PRL from E. coli, Genzyme; or recombinant human PRL from Drosophila S2 cells) alone or premixed with 1-2000 fold excess of purified CypB. Parallel studies were performed using human pituitary-derived GH (National Hormone and Pituitary Program, NIDDK). Cultures were incubated for 48 hours at 37° C. and proliferation was evaluated by the addition of 0.5 μCi of ^3H-thymidine for four hours followed by harvesting and scintillography. When stimulated with PRL alone, Nb2 cells yield sigmoid shaped growth curves that plateau at approximately 2 ng PRL/ml.

[1] = tested on: T47D human breast cancer cells; test: Nuclear retrotranslocation of PRL by indirect anti-PRL immunofluorescence; type: cell-based; details: defined T47D culture medium containing the co-mitogen EGF
Description: Experiments were performed to examine the ability of CypB to enhance nuclear retrotranslocation of PRL, and thereby PRL-driven proliferation.
The role of this sequence in the CypB-mediated retrotranslocation of PRL, and its associated enhancement of growth was tested by mutagenic approaches. The putative nuclear localization sequence of CypB was deleted in the mutant CypB-NT.

[2] = tested on: IL-2- and IL-3-driven proliferation; test: IL-2- and IL-3-driven proliferation with added CypB; type: cell-based; details: varying concentration of CypB
Description: as §1

Substance | interaction with PRL (co-immunoprecipitation) (PRL) | enhancement of PRL-driven growth compared to cultures that received only PRL (Nb2 cells) | interaction with PRL in human serum (co-immunoprecipitation; binding to sepharose-conjugated recombinant CypB) (PRL; human serum) | T47D nuclei exhibiting anti-PRL immunofluorescence [1] | effect on IL-2-driven proliferation [2] | effect on IL-3-driven proliferation [2] | enhancement of PRL-induced proliferation (Nb2 cells; cell line not stated) | enhancement of GH-driven proliferation compared to GH alone (Nb2 cells; physiological concentrations of CypB, human pituitary-derived GH)
CypA: recombinant form of the highly homologous cyclophilin family member [reference compound] | failed to interact with PRL | did not result in any potentiation |  |  |  |  |  | 
CypB: cyclophilin family cis-trans peptidyl prolyl isomerase; recombinant His-tagged wild-type protein (SEQ ID NO: 1) | direct interaction of CypB with PRL | eight-fold | direct co-immunoprecipitation of PRL with CypB from human serum | 95-100% | Neither IL-2- nor IL-3-driven proliferation was altered | Neither IL-2- nor IL-3-driven proliferation was altered | failed to enhance PRL-induced proliferation | forty-fold
